These results are taken from PubChem BioAssay (NCI).

SMILES strings stand for the structures.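 Protocol summary: plate cells (96-well), add compound at 5 concentrations, incubate 48 h, interpolate endpoints linearly. TGI denotes the concentration required for complete inhibition of growth.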

Among the test systems are KM20L2 colon; RXF-631 renal; LXFL 529 NSCLC; DMS 114 small cell lung; DLD-1 colon; SNB-78 CNS; M19-MEL melanoma; HOP-18 NSCLC; P388 leukemia; SN12K1 renal; P388/ADR leukemia.
What all share (assay): NCI tumour cell line growth inhibition, 48 h

Consider `COc1ccc(OC)c(NC(=O)C(=O)C(C(=O)c2ccccc2F)C2OC(=O)c3ccccc32)c1` (stereo not given), for which the TGI with KM20L2 colon, in the assay with RXF-631 renal, in the assay on LXFL 529 NSCLC, with DMS 114 small cell lung, in the assay on DLD-1 colon and in the assay with SNB-78 CNS was above 100 µM each time. Besides, in the assay with M19-MEL melanoma, the TGI was above 100 µM.
Take `c1c(N2CCOCC2)ssc1=[N+]1CCOCC1`: the TGI in the assay on KM20L2 colon, with HOP-18 NSCLC, in the assay on LXFL 529 NSCLC, with DMS 114 small cell lung, in the assay with DLD-1 colon and in the assay on SNB-78 CNS was above 100 µM each time.
As for `CC(=O)OC1CC2(O)C(CCC3(C)C(c4ccc(=O)oc4)CCC32O)C2(C)C1=CC(O)C1OC12` (stereo not given), the TGI was determined as 0.533 µM in the assay with KM20L2 colon; 0.385 µM with HOP-18 NSCLC; 154 µM in the assay with P388 leukemia; 0.139 µM with SN12K1 renal; 250 µM with P388/ADR leukemia; 0.0335 µM in the assay with DMS 114 small cell lung. Moreover, the TGI with DLD-1 colon was 0.179 µM; in the assay on SNB-78 CNS, 0.279 µM; with M19-MEL melanoma it was 0.245 µM.
Turning to `CCCO/N=[N+](\[O-])N(CC)CC`, the TGI with KM20L2 colon, in the assay with LXFL 529 NSCLC and with SNB-78 CNS was above 100 µM in each case.
